Consider five molecules from PMC5669010 (AIDS Research and Therapy, 2017).

The conditions of data set [1]: cited from earlier work.
The conditions of data set [2]: human, in vivo, 24 h.
Method: (§1) Plasma samples were frozen and stored at – 80 °C until analysis.
(§2) Addition of elvitegravir and cobicistat to the method was partly validated, including selectivity, linearity, accuracy and recovery, inter- and intra-run repeatability, and stability.
(§3) Elvitegravir and cobicistat concentrations were compared to historical controls.
The test system of data set [3] is wild-type (non-protease inhibitor-resistant) virus. The settings on record: cited from earlier work.
The next data set is described as follows: clinical. The settings on record: human, in vivo, Elvitegravir Ctrough,ss, individual patients.
The mark [4] stands for this setting: population PK data for E/C/F/TDF, n = 419.
The mark [5] stands for this setting: 60 subjects, darunavir 800 mg/cobicistat 150 mg with two NRTIs.

Read-outs that look alike come from different tables or passages of the source.

Method for clinical: as §1, §2, §3

Turning to `CC(C)OC(=O)[C@H](C)N[P@](=O)(CO[C@H](C)Cn1cnc2c(N)ncnc21)Oc1ccccc1` [TAF, tenofovir alafenamide], the “Plasma concentrations of TAF” value in data set [1] (PK substudy of E/C/F/TAF plus darunavir switch study) is reported as “at the lower end of the efficacious range”.
In the case of `COc1cc2c(cc1Cc1cccc(Cl)c1F)c(=O)c(C(=O)O)cn2[C@H](CO)C(C)C` [elvitegravir], the “Elvitegravir Ctrough,ss relative to protein-adjusted IC95 (45 ng/mL)” value in data set [2] was “more than 2 fold”. Also, the “Elvitegravir Ctrough,ss, individual patients” value in data set [2] came out at 82 ng/mL. In data set [3] (wild type virus), the “Protein-adjusted 95% inhibitory concentration (IC95)” value was 0.045 µg/mL. In “clinical”, this molecule had a concentration at 24 h of less than 80 ng/mL. Moreover, the “Elvitegravir Ctrough,ss, mean” value is 464 ng/mL in data set [1] (E/C/F/TAF + DRV, N 15); 234 ng/mL in data set [1] (E/C/F/TDF + DRV, N 24); 250 ng/mL in data set [1] (E/C/F/TDF without darunavir, N 32); 451 ng/mL in data set [1] (E/C/F/TDF without darunavir, N 419, population pharmacokinetic estimate). Besides, in data set [1] (setting [4]), the “Elvitegravir Cmax, mean” value is given as 1731 ng/mL. For the same molecule, the Elvitegravir tmax in data set [1] (setting [4]) is on record as 4.0 h.
On to `CC(C)CN(C[C@@H](O)[C@H](Cc1ccccc1)NC(=O)O[C@H]1CO[C@H]2OCC[C@H]21)S(=O)(=O)c1ccc(N)cc1` [darunavir], for which the “Half maximal effective concentration (EC50)” value in data set [3] (wild-type (non-protease inhibitor-resistant) virus) is 0.055 µg/mL. Also, in data set [3] (wild-type virus), the “Protein-adjusted 50% inhibitory concentration (IC50)” value is 0.055 µg/mL. Further, in data set [1] (setting [5]), the “Darunavir Cmax, mean” value is reported as 7663 ng/mL and the “Darunavir tmax, median” value was 3.5 h.
Turning to `COC(=O)N[C@H](C(=O)N[C@@H](Cc1ccccc1)[C@@H](O)CN(Cc1ccc(-c2ccccn2)cc1)NC(=O)[C@@H](NC(=O)OC)C(C)(C)C)C(C)(C)C` [atazanavir], the “Effect of coadministration with elvitegravir/cobicistat on atazanavir trough levels” value in data set [1] (human, in vivo) was “significant lowering of atazanavir trough levels”.
For `CC(C)c1nc(CN(C)C(=O)N[C@@H](CCN2CCOCC2)C(=O)N[C@H](CC[C@H](Cc2ccccc2)NC(=O)OCc2cncs2)Cc2ccccc2)cs1` [cobicistat], the “Cobicistat 24-h level, mean” value in data set [1] (59 HIV-infected patients, darunavir/cobicistat with emtricitabine and tenofovir DF) was 33 ng/mL. In data set [1] (setting [5]), the “Cobicistat C0h, mean” value was 76 ng/mL; the “Cobicistat Cmax, mean” value is given as 991 ng/mL; the “Cobicistat tmax, median” value is given as 3.5 h. For the same molecule, in data set [1] (patients taking E/C/F/TDF with darunavir), the “Cobicistat 24-h concentration, mean” value is 20.2 ng/mL.
